# Measured values taken from PMC8213762, “An epitope-specific chemically defined nanoparticle vaccine for respiratory syncytial virus” (NPJ Vaccines, 2021).
# Entries after “also recorded” stand apart in the source; their conditions may differ.
# Tests used:
# [1] = system: RSV A Tracy; assay: RSV A Tracy microneutralization (MN) assay of mAbs; type: cell-based, respiratory syncytial virus; settings: for MN titer: RSV A Tracy, HEp-2 cells, 50% reduction in viral cytopathic effect
# Experimental: The RSV A Tracy MN assay was performed by Prof. Pedro Piedra at Baylor College of Medicine, Texas, USA. Heat-inactivated serum samples were analyzed for nAbs against RSV A/Tracy in HEp-2 cells using qualified MN assays as previously described[38]–[41]. nAb titers were defined as the final dilution at which there was a 50% reduction in viral cytopathic effect. Any serum sample resulting in a titer less than the lower limit of detection (LOD) (2.5 log2) was assigned a value of 2 log2.
# [2] = system: RSV strain A2; assay: Passive transfer challenge model, lung virus titer by plaque assay; type: in vivo; settings: cotton rats n = 5, mAb 24 h before challenge with 10^4 PFU RSV A2, doses 1.0, 2.5, 5.0, 15 mg; lungs day 5; ****P ≤ 0.0001 vs PBS
# Experimental: The challenge study comparing 10D11 and palivizumab was performed at Sigmovir Biosystems Inc. (MD, USA). Young adult male cotton rats (8, 6–8 weeks old) were treated IM with the mAb (1.0, 2.5, 5.0, or 15 mg doses). All animals were challenged with 100 µl RSV/A2 at 10^5 pfu per animal. After sacrificing the animals, nasal and lung tissue were harvested for viral titration using the RSV/A2 60% PRNT assay described above.
# [3] = system: palivizumab; assay: ELISA binding of palivizumab to coated V-306, V-306p or SVLP carrier; design: species or system humanized murine
# Experimental: These ELISA were performed at the Center for Vaccinology (CEVAC), Ghent University and University Hospital, Belgium, based on the methods described above. […] Then 8 twofold serial dilutions of human serum were added. After washing, anti-human IgG Fc mAb-HRP (1/120,000 dilution) was added. After washing, TMB substrate was added. The color reaction was terminated by the addition of 1 N sulphuric acid. After 30 min the OD is read. The optical density for a given sample was used to extrapolate the Ab titer expressed in µg/mL. The coating conditions were optimized using IgG-depleted human serum spiked with known concentrations of palivizumab such that no further increase in signal is observed (saturation point) and no significant signal is seen in the negative control. The sensitivity of the assay was determined using different concentrations of palivizumab (from 0 to 200 µg/mL) and of anti-human IgG HRP-conjugated Ab (see Supplementary Fig. 5). The detection limit was 0.012207 µg/mL palivizumab (0.61 µg/mL in human serum diluted 1/50). The palivizumab-like Ab concentrations found in 20 different human sera (serum samples 001–020) are shown in Supplementary Fig. 5.
Molecule,MN titer [1] [log2],"reduction of RSV replication in lungs, passive transfer [2]",detection limit of ELISA ([3]; ELISA with palivizumab standard 0 to 200 µg/mL) [µg/mL],detection limit of ELISA in human serum ([3]; human serum diluted 1/50) [µg/mL],MN potency of 10D11 relative to palivizumab (fold) ([1]; RSV A Tracy MN)
palivizumab: prophylactic humanized murine monoclonal nAb,5.0,significantly reduced RSV replication in the lungs in a dose-dependent manner,0.01221,0.61,–
"10D11: monoclonal antibody against V-306 generated in BALB/c mice (antibody, V domains shown) VH: QVQLKESGPGLVAPSQSLSITCTVSGFSLTSYDISWIRQPPGKGLEWLGIIWNGGGTNYNSAFMSRLSINKDNSKSQVFLKMNSLQTDDTAIYYCVRGDYDYAWFDYWGQGTLVTVSA VL: NIMMTQSPSSLTVSAGEKVTMSCKSSQSVLYGSNQKNYLAWYQQKPGQSPKLLIYWASTRDSGVPDRFTGSGSGTDFTLTISSVQAEDLAVYYCHQYLFSWTFGGGTKLEIK",7.0,significantly reduced RSV replication in the lungs in a dose-dependent manner; also recorded: reduced lung virus titers in a dose-dependent manner,–,–,approximately fourfold
